This test deals with T1, human DLL3 (Homo sapiens, UniProt Q9NYJ7).
T1 sequence (Q9NYJ7 27-618): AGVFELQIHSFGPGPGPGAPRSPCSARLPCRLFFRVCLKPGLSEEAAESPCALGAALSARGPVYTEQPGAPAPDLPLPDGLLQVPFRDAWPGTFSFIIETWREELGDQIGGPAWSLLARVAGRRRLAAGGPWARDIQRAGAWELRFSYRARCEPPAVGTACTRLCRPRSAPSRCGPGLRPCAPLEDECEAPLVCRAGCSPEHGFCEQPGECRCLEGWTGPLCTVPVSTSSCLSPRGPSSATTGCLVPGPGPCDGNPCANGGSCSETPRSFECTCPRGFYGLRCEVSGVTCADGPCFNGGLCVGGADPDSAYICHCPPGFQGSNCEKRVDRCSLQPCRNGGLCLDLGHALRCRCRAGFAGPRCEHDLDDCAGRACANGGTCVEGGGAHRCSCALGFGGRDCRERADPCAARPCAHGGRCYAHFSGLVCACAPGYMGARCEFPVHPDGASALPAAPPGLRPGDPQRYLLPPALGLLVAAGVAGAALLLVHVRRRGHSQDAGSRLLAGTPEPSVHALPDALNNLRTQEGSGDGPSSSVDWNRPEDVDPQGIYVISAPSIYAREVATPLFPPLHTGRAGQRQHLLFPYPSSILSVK
In words: Affinity determination by Surface Plasmon Resonance (SPR). It counts as binding. The conditions noted are these: 25° C., biotinylated human DLL3 immobilized on streptavidin sensor chip, 1:1 binding model; read-out: SPR KD. The gist of the method: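 Biotinylated human DLL3 was captured on a streptavidin chip with a reference surface. Compounds at several concentrations were injected at 100 μL/minute in phosphate buffer (137 mM NaCl, 2.7 mM KCl, 0.05% P20, 2% DMSO). Affinity and kinetics came from 1:1 model fits of the sensorgrams.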

Molecules are shown by their SMILES. Numbered stars: 1 amine (or outer) side, 2 acyl side, 3 side chain; on linkers, the order of the positions; unused ones are H or OH. Bridge positions count the residues as written; N and C are the ends. Square brackets hold non-standard residues; d marks the D form. Peptide text beside a SMILES is read from it. * marks the point of attachment. DOTA = O=C(O)CN1CCN(CC(=O)O)CCN(CC(=O)*)CCN(CC(=O)O)CC1; Phe(4-CF3) = N[C@@H](Cc1ccc(C(F)(F)F)cc1)C(=O)O; Trp(5-F) = N[C@@H](Cc1c[nH]c2ccc(F)cc12)C(=O)O; Phe(2-CF3) = N[C@@H](Cc1ccccc1C(F)(F)F)C(=O)O; Trp(7-aza) = N[C@@H](Cc1c[nH]c2ncccc12)C(=O)O; X5 = O=C([C@H](CC1C=NC2N=CC=CC12)N[*:1])[*:2]; Pro(trans-4-F) = O=C(O)[C@@H]1C[C@@H](F)CN1; Gly(4-THP) = N[C@H](C(=O)O)C1CCOCC1; Cha = N[C@@H](CC1CCCCC1)C(=O)O; Cba = N[C@@H](CC1CCC1)C(=O)O; Chg = N[C@H](C(=O)O)C1CCCCC1; Tle = CC(C)(C)[C@H](N)C(=O)O; Nle = CCCC[C@H](N)C(=O)O; Aze = O=C(O)[C@@H]1CCN1

On to `CCCC[C@H](NC(=O)[C@@H](NC(=O)[C@H](Cc1c[nH]c2ccc(F)cc12)NC(C)=O)[C@@H](C)O)C(=O)N[C@H]1CSSC[C@@H](C(=O)N[C@@H](Cc2c[nH]c3ncccc23)C(=O)N2CC[C@H]2C(=O)N[C@H](CCCCNC(=O)CN2CCN(CC(=O)O)CCN(CC(=O)O)CCN(CC(=O)O)CC2)C(N)=O)NC(=O)[C@H](CC(=O)O)NC(=O)[C@H](Cc2cnc[nH]2)NC(=O)[C@H](Cc2ccc(C(F)(F)F)cc2)NC(=O)[C@H](CC(N)=O)NC(=O)[C@H](CC(N)=O)NC1=O` [compound 140, Ac-(5Fluoro-W)-T-(Nle)-C(3)-N-N-(4CF3-F)-H-D-C(3)-(7Aza-W)-(Aze)-[D-Lys(DOTA)]-NH2] (Ac-[Trp(5-F)]T[Nle]CNN[Phe(4-CF3)]HDC[Trp(7-aza)][Aze][dK](DOTA)-NH2; disulfide 4-10), for which the Kd lay in the range of 10 to 100 nM.
`CC(=O)N[C@@H](Cc1c[nH]c2ccc(F)cc12)C(=O)N[C@H](C(=O)N[C@@H](CC1CCCCC1)C(=O)N[C@H]1CSSC[C@@H](C(=O)N[C@@H](Cc2c[nH]c3ncccc23)C(=O)N2CC[C@H]2C(=O)N[C@H](CCCCNC(=O)CN2CCN(CC(=O)O)CCN(CC(=O)O)CCN(CC(=O)O)CC2)C(N)=O)NC(=O)[C@H](CC(=O)O)NC(=O)[C@H](Cc2cnc[nH]2)NC(=O)[C@H](Cc2ccc(C(F)(F)F)cc2)NC(=O)[C@H](CC(N)=O)NC(=O)[C@H](CC(N)=O)NC1=O)[C@@H](C)O` [compound 141, Ac-(5Fluoro-W)-T-(CHA)-C(3)-N-N-(4CF3-F)-H-D-C(3)-(7Aza-W)-(Aze)-[D-Lys(DOTA)]-NH2] (Ac-[Trp(5-F)]T[Cha]CNN[Phe(4-CF3)]HDC[Trp(7-aza)][Aze][dK](DOTA)-NH2; disulfide 4-10): the Kd was in the range of 1 to 10 nM.
Then `CC(=O)N[C@@H](Cc1c[nH]c2ccc(F)cc12)C(=O)N[C@H](C(=O)N[C@@H](CC1CCC1)C(=O)N[C@H]1CSSC[C@@H](C(=O)N[C@@H](Cc2c[nH]c3ncccc23)C(=O)N2CC[C@H]2C(=O)N[C@H](CCCCNC(=O)CN2CCN(CC(=O)O)CCN(CC(=O)O)CCN(CC(=O)O)CC2)C(N)=O)NC(=O)[C@H](CC(=O)O)NC(=O)[C@H](Cc2cnc[nH]2)NC(=O)[C@H](Cc2ccc(C(F)(F)F)cc2)NC(=O)[C@H](CC(N)=O)NC(=O)[C@H](CC(N)=O)NC1=O)[C@@H](C)O` [compound 142, Ac-(5Fluoro-W)-T-(CBA)-C(3)-N-N-(4CF3-F)-H-D-C(3)-(7Aza-W)-(Aze)-[D-Lys(DOTA)]-NH2] (Ac-[Trp(5-F)]T[Cba]CNN[Phe(4-CF3)]HDC[Trp(7-aza)][Aze][dK](DOTA)-NH2; disulfide 4-10), with 1 to 10 nM; and `CC(=O)N[C@@H](Cc1c[nH]c2ccc(F)cc12)C(=O)N[C@H](C(=O)N[C@H](C(=O)N[C@H]1CSSC[C@@H](C(=O)N[C@@H](Cc2c[nH]c3ncccc23)C(=O)N2CC[C@H]2C(=O)N[C@H](CCCCNC(=O)CN2CCN(CC(=O)O)CCN(CC(=O)O)CCN(CC(=O)O)CC2)C(N)=O)NC(=O)[C@H](CC(=O)O)NC(=O)[C@H](Cc2cnc[nH]2)NC(=O)[C@H](Cc2ccc(C(F)(F)F)cc2)NC(=O)[C@H](CC(N)=O)NC(=O)[C@H](CC(N)=O)NC1=O)C1CCCCC1)[C@@H](C)O` [compound 143, Ac-(5Fluoro-W)-T-(Chg)-C(3)-N-N-(4CF3-F)-H-D-C(3)-(7Aza-W)-(Aze)-[D-Lys(DOTA)]-NH2] (Ac-[Trp(5-F)]T[Chg]CNN[Phe(4-CF3)]HDC[Trp(7-aza)][Aze][dK](DOTA)-NH2; disulfide 4-10), with 1 to 10 nM; and `CC(=O)N[C@@H](Cc1c[nH]c2ccc(F)cc12)C(=O)N[C@H](C(=O)N[C@@H](Cc1ccccc1C(F)(F)F)C(=O)N[C@H]1CSSC[C@@H](C(=O)N[C@@H](Cc2c[nH]c3ncccc23)C(=O)N2CC[C@H]2C(=O)N[C@H](CCCCNC(=O)CN2CCN(CC(=O)O)CCN(CC(=O)O)CCN(CC(=O)O)CC2)C(N)=O)NC(=O)[C@H](CC(=O)O)NC(=O)[C@H](Cc2cnc[nH]2)NC(=O)[C@H](Cc2ccc(C(F)(F)F)cc2)NC(=O)[C@H](CC(N)=O)NC(=O)[C@H](CC(N)=O)NC1=O)[C@@H](C)O` [compound 144, Ac-(5Fluoro-W)-T-(2CF3-F)-C(3)-N-N-(4CF3-F)-H-D-C(3)-(7Aza-W)-(Aze)-[D-Lys(DOTA)]-NH2] (Ac-[Trp(5-F)]T[Phe(2-CF3)]CNN[Phe(4-CF3)]HDC[Trp(7-aza)][Aze][dK](DOTA)-NH2; disulfide 4-10), with 1 to 10 nM.
Turning to `CC(=O)N[C@@H](Cc1c[nH]c2ccc(F)cc12)C(=O)N[C@H](C(=O)N[C@H](C(=O)N[C@H]1CSSC[C@@H](C(=O)N[C@@H](CC2C=NC3N=CC=CC23)C(=O)N2C[C@H](F)C[C@H]2C(=O)N[C@H](CCCCNC(=O)CN2CCN(CC(=O)O)CCN(CC(=O)O)CCN(CC(=O)O)CC2)C(N)=O)NC(=O)[C@H](CC(=O)O)NC(=O)[C@H](Cc2cnc[nH]2)NC(=O)[C@H](Cc2ccc(C(F)(F)F)cc2)NC(=O)[C@H](CC(N)=O)NC(=O)[C@H](CC(N)=O)NC1=O)C(C)(C)C)[C@@H](C)O` (stereo partly drawn) [compound 145, Ac-(5Fluoro-W)-T-(Tbg)-C(3)-N-N-(4CF3-F)-H-D-C(3)-(7Aza-W)-(trans4Fluoro-P)-[D-Lys(DOTA)]-NH2] (Ac-[Trp(5-F)]T[Tle]CNN[Phe(4-CF3)]HDC[X5][Pro(trans-4-F)][dK](DOTA)-NH2; disulfide 4-10), the Kd lay within 1 to 10 nM.
As to `CC(=O)N[C@@H](Cc1c[nH]c2ccc(F)cc12)C(=O)N[C@H](C(=O)N[C@H](C(=O)N[C@H]1CSSC[C@@H](C(=O)N[C@@H](Cc2c[nH]c3ncccc23)C(=O)N2C[C@H](F)C[C@H]2C(=O)N[C@H](CCCCNC(=O)CN2CCN(CC(=O)O)CCN(CC(=O)O)CCN(CC(=O)O)CC2)C(N)=O)NC(=O)[C@H](CC(=O)O)NC(=O)[C@H](Cc2cnc[nH]2)NC(=O)[C@H](Cc2ccc(C(F)(F)F)cc2)NC(=O)[C@H](CC(N)=O)NC(=O)[C@H](CC(N)=O)NC1=O)C1CCOCC1)[C@@H](C)O` [compound 147, Ac-(5Fluoro-W)-T-(THPG)-C(3)-N-N-(4CF3-F)-H-D-C(3)-(7Aza-W)-(trans4Fluoro-P)-[D-Lys(DOTA)]-NH2] (Ac-[Trp(5-F)]T[Gly(4-THP)]CNN[Phe(4-CF3)]HDC[Trp(7-aza)][Pro(trans-4-F)][dK](DOTA)-NH2; disulfide 4-10), the Kd lay in the range of 1 to 10 nM.
Then `CCCC[C@H](NC(=O)[C@@H](NC(=O)[C@H](Cc1c[nH]c2ccc(F)cc12)NC(C)=O)[C@@H](C)O)C(=O)N[C@H]1CSSC[C@@H](C(=O)N[C@@H](Cc2c[nH]c3ncccc23)C(=O)N2C[C@H](F)C[C@H]2C(=O)N[C@H](CCCCNC(=O)CN2CCN(CC(=O)O)CCN(CC(=O)O)CCN(CC(=O)O)CC2)C(N)=O)NC(=O)[C@H](CC(=O)O)NC(=O)[C@H](Cc2c[nH]cn2)NC(=O)[C@H](Cc2ccc(C(F)(F)F)cc2)NC(=O)[C@H](CC(N)=O)NC(=O)[C@H](CC(N)=O)NC1=O` [compound 148, Ac-(5Fluoro-W)-T-(Nle)-C(3)-N-N-(4CF3-F)-H-D-C(3)-(7Aza-W)-(trans4Fluoro-P)-[D-Lys(DOTA)]-NH2] (Ac-[Trp(5-F)]T[Nle]CNN[Phe(4-CF3)]HDC[Trp(7-aza)][Pro(trans-4-F)][dK](DOTA)-NH2; disulfide 4-10), with 1 to 10 nM; and `CC(=O)N[C@@H](Cc1c[nH]c2ccc(F)cc12)C(=O)N[C@H](C(=O)N[C@@H](CC1CCCCC1)C(=O)N[C@H]1CSSC[C@@H](C(=O)N[C@@H](Cc2c[nH]c3ncccc23)C(=O)N2C[C@H](F)C[C@H]2C(=O)N[C@H](CCCCNC(=O)CN2CCN(CC(=O)O)CCN(CC(=O)O)CCN(CC(=O)O)CC2)C(N)=O)NC(=O)[C@H](CC(=O)O)NC(=O)[C@H](Cc2cnc[nH]2)NC(=O)[C@H](Cc2ccc(C(F)(F)F)cc2)NC(=O)[C@H](CC(N)=O)NC(=O)[C@H](CC(N)=O)NC1=O)[C@@H](C)O` [compound 149, Ac-(5Fluoro-W)-T-(CHA)-C(3)-N-N-(4CF3-F)-H-D-C(3)-(7Aza-W)-(trans4Fluoro-P)-[D-Lys(DOTA)]-NH2] (Ac-[Trp(5-F)]T[Cha]CNN[Phe(4-CF3)]HDC[Trp(7-aza)][Pro(trans-4-F)][dK](DOTA)-NH2; disulfide 4-10), with 1 to 10 nM; and `CC(=O)N[C@@H](Cc1c[nH]c2ccc(F)cc12)C(=O)N[C@H](C(=O)N[C@@H](CC1CCC1)C(=O)N[C@H]1CSSC[C@@H](C(=O)N[C@@H](Cc2c[nH]c3ncccc23)C(=O)N2C[C@H](F)C[C@H]2C(=O)N[C@H](CCCCNC(=O)CN2CCN(CC(=O)O)CCN(CC(=O)O)CCN(CC(=O)O)CC2)C(N)=O)NC(=O)[C@H](CC(=O)O)NC(=O)[C@H](Cc2cnc[nH]2)NC(=O)[C@H](Cc2ccc(C(F)(F)F)cc2)NC(=O)[C@H](CC(N)=O)NC(=O)[C@H](CC(N)=O)NC1=O)[C@@H](C)O` [compound 150, Ac-(5Fluoro-W)-T-(CBA)-C(3)-N-N-(4CF3-F)-H-D-C(3)-(7Aza-W)-(trans4Fluoro-P)-[D-Lys(DOTA)]-NH2] (Ac-[Trp(5-F)]T[Cba]CNN[Phe(4-CF3)]HDC[Trp(7-aza)][Pro(trans-4-F)][dK](DOTA)-NH2; disulfide 4-10), with 1 to 10 nM.

The Kd is the constant that tells how readily two partners part at equilibrium.

The values above are taken from patent publication US20250011368A1, “DLL3 TARGETING PEPTIDES AND CONSTRUCTS THEREOF” (MARIANA ONCOLOGY INC., priority 2023, published 2025).
